Measured values published in patent publication US20020076443A1, “Multiple phase cross-linked compositions and uses thereof” (priority 2000, published 2002).

What was measured:
[1] = Water solubility; format: physicochemical; settings: clinical grade dextran of about 70 kDa versus HSA
[2] = cited from earlier work

Question: What does the source list for dextran?
Answer: water solubility, fold lower than HSA [1]: > 10 fold; water solubility [2]: about 30 mg/mL
